Results: EP0164320A1, “Pharmaceutical preparations for spinal analgesia containing guanfacine, and method for their preparation” (priority 1984, dated 1985)

Tests used:
Format in all cases: in vivo
mice [1] = assay: tail-flick test after intrathecal injection in mice; parameters: unit not given here; details: 15 minutes after intrathecal injection of 5 µl, mean ± S.E.M.
Method: (§1) Antinociceptive effects in mice were established in the following test. The effect 15 minutes after intrathecal injection of a volume of 5 µl containing different doses of guanfacine was established. The vehicle used was a physiological solution of sodium chloride.

male Sprague-Dawley rats [2] = assay: hot plate test after intrathecal injection in rats; parameters: unit not given here; details: rat, mean ± S.E.M.
Method: (§2) The antinociceptive effect of guanfacine may be established by the hot plate and tail-flick test.
(§3) Testing of tail-flick was performed using an IITC Inc. Mod. 33 Analgesia- meter@, with the light focused on the tip of the tail (d'Amour, F.E. and Smith, D.L. J. Pharmacol. Exp. Ther. 72, 74, 1941). The intensity of the beam was adjusted to give a reaction time of 3-4 sec. before intrathecal injection of the drug solutions. For the hot plate testing, a modification of the Eddy and Leimbach method (Eddy, N.B. and Leimbach, D. J. Pharmacol. Exp. Ther. 107, 385, 1952) was used. An IITC Inc. Mod. 35-D Analgesiameter® was set at a temperature of 58^±0.2°C. The criteria for a pain response was licking of either of the hindpaws.
(§4) We examined the pain responsiveness of male Sprague-Dawley rats in a weight range of 300-350 g. […] The catheter was fixed at a surgical operation. The animals were kept in the animal colony in separate cages until testing took place 1 week after operation. The drug was administered in a volume of 15 µl, and testing of hot plate and tail-flick reaction latencies took place at the intervals given in the tables. Animals given the combination of guanfacine and bupivacaine were not tested until the local anaesthetic effect of bupivacaine had disappeared, which normally took between 10 and 15 minutes.
(§5) Guanfacine or a physiologically acceptable salt thereof was administered alone or in combination with the local anaesthetic agent bupivacaine or a physiologically acceptable salt thereof. When guanfacine'was administered together with bupivacaine first an initial phase of regional anaesthesia restricted to the hind-legs and the lower derma- tomes was obtained. When this effect had disappeared the animals were still non-responsive in the hot plate and tail-flick test for up to at least 7 hours after the injection, cf Table 2 below.

male Sprague-Dawley rats [3] = assay: tail-flick test after intrathecal injection in rats; parameters: unit not given here; details: rat, mean ± S.E.M.
Method: as §2, §3, §4, §5

mice [4] = assay: behavioural response (paw licking) after subcutaneous formaline in mice; details: 1% formaline s.c. 20 µl, 5 µl, 0.01% (0.5 µg) of guanfacine i.th. 15 minutes before, ± S.E.M., 10 animals
Method: Behavioural response in mice after subcutaneous injection of 20 µl of a physiological solution of sodium chloride or a 1 % solution of formaline on the dorsum of either hind paw.
5 µl, 0.01% ([…]) of guanfacine or the same volume of a physiological solution of sodium chloride were injected intrathetecally 15 minutes before the subcutaneous injection of formaline. The accumulated reaction, i.e. the total time of licking on the injected paw, was measured during the 5 minutes after the injection of formaline.
The results are expressed as mean accumulated response during 5 minutes in seconds ± S.E.M. Each group consisted of 10 animals.

mice [5] = assay: hot-plate test after intrathecal injection in mice; parameters: unit not given here; details: 15 minutes after intrathecal injection of 5 µl, mean ± S.E.M.
Method: as §1

[6] = 0.001 % guanfacine, dose 0.05 µg
[7] = 0.002 % guanfacine, dose 0.1 µg
[8] = 0.004 % guanfacine, dose 0.2 µg
[9] = 0.006 % guanfacine, dose 0.3 µg
[10] = intrathecal 75 µg guanfacine (15 µl 0.5 %), 1 min, 100x(test-latency - pre-drug latency)/pre-drug latency, n=4
[11] = intrathecal 75 µg guanfacine, 5 min
[12] = intrathecal 75 µg guanfacine, 10 min
[13] = intrathecal 75 µg guanfacine, 20 min
[14] = intrathecal 75 µg guanfacine, 30 min
[15] = intrathecal 75 µg guanfacine, 45 min
[16] = intrathecal 75 µg guanfacine, 8 hours
[17] = intrathecal 75 µg guanfacine, 22 hours

N=C(N)NC(=O)Cc1c(Cl)cccc1Cl [guanfacine, 2,6-dichlorophenyl-acetyl-guanidine]
Antinociception tail-flick (cut-off=10 sec) (mice [1]; [6]): 29±23 | Antinociception tail-flick (cut-off=10 sec) (mice [1]; [7]): 26±13 | Antinociception tail-flick (cut-off=10 sec) (mice [1]; [8]): 59±17 | Antinociception tail-flick (cut-off=10 sec) (mice [1]; [9]): 86±18 | Antinociception hot plate (cut-off=30 sec.) (male Sprague-Dawley rats [2]; [10]): -15±12 | Antinociception hot plate (cut-off=30 sec.) (male Sprague-Dawley rats [2]; [11]): -15±6 | Antinociception hot plate (cut-off=30 sec.) (male Sprague-Dawley rats [2]; [12]): 29±18 | Antinociception hot plate (cut-off=30 sec.) (male Sprague-Dawley rats [2]; [13]): 62±29 | Antinociception hot plate (cut-off=30 sec.) (male Sprague-Dawley rats [2]; [14]): 116±36 | Antinociception hot plate (cut-off=30 sec.) (male Sprague-Dawley rats [2]; [15]): 239±23 | Antinociception hot plate (cut-off=30 sec.) (male Sprague-Dawley rats [2]; [16]): 124±56 | Antinociception hot plate (cut-off=30 sec.) (male Sprague-Dawley rats [2]; [17]): 41±12 | Antinociception hot plate (cut-off=30 sec.) (male Sprague-Dawley rats [2]; intrathecal 75 µg guanfacine, 27 hours): 25±16 | Antinociception tail-flick (cut-off=10 sec.) (male Sprague-Dawley rats [3]; [10]): 27.5±17 | Antinociception tail-flick (cut-off=10 sec.) (male Sprague-Dawley rats [3]; [11]): 92.75±26 | Antinociception tail-flick (cut-off=10 sec.) (male Sprague-Dawley rats [3]; [12]): 110±33 | Antinociception tail-flick (cut-off=10 sec.) (male Sprague-Dawley rats [3]; [13]): 147±13 | Antinociception tail-flick (cut-off=10 sec.) (male Sprague-Dawley rats [3]; [14]): 153±10 | Antinociception tail-flick (cut-off=10 sec.) (male Sprague-Dawley rats [3]; [15]): 156±8 | Antinociception tail-flick (cut-off=10 sec.) (male Sprague-Dawley rats [3]; [16]): 138±20 | Antinociception tail-flick (cut-off=10 sec.) (male Sprague-Dawley rats [3]; [17]): 62±8 | mean accumulated response (total time of licking on the injected paw) during 5 minutes (mice [4]): 9 ± 2 s | Antinociception hot-plate (cut-off=30 sec) (mice [5]; [6]): 128±29 | Antinociception hot-plate (cut-off=30 sec) (mice [5]; [7]): 152±33 | Antinociception hot-plate (cut-off=30 sec) (mice [5]; [8]): 152±47 | Antinociception hot-plate (cut-off=30 sec) (mice [5]; [9]): 168±40
